Measurements published in US20260297016A1, “THERAPEUTIC COMPOUNDS” (REGENTS OF THE UNIVERSITY OF MINNESOTA, priority 2023, published 2026).
Entries after “also recorded” stand apart in the source; their conditions may differ.

Legend:
human PPARα = target: T1, human PPARα (Homo sapiens, UniProt Q07869); assay: Cell-based Luciferase Assay, human PPARα agonist activity (Indigo Biosciences hPPARα IB00111); details: for activation at 0.5 µM: read-out: % PPAR-alpha AGONISM, % at 0.5 μm; for activation at 5 µM: read-out: % PPAR-alpha AGONISM, % at 5 μm; for activation at 50 µM: read-out: % PPAR-alpha AGONISM, % at 50 μm
T1 construct: borders undisclosed
T1 sequence (Q07869 1-468): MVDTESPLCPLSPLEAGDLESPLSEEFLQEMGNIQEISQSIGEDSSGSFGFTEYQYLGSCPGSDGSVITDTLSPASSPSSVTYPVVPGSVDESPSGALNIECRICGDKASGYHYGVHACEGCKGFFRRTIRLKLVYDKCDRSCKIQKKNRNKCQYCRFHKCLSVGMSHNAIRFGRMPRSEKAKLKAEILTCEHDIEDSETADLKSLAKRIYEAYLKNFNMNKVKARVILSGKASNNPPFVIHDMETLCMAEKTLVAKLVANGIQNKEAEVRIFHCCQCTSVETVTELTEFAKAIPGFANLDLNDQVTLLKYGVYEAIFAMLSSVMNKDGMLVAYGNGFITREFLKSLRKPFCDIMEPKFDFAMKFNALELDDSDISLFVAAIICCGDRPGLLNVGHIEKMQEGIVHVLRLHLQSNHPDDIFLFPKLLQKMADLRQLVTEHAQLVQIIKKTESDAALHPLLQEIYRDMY
Text: Cell-based Luciferase Assay. […] Luminescence was quantified using a GloMax Explorer (Promega).

STING = target: T2, STING (Homo sapiens, UniProt Q86WV6, G230A/H232R/R293Q/R71H); assay: IRF-Lucia Reporter STING Inhibition Assay (THP-1 Lucia ISG cells); type: cell-based; details: 1 μM 2,3-cGAMP, 20 hours
T2 construct: THP-1 Lucia ISG cells (InvivoGen, thpl-isg); host or cells: THP-1 Lucia ISG cells
T2 sequence (Q86WV6 whole entry R71H/G230A/H232R/R293Q): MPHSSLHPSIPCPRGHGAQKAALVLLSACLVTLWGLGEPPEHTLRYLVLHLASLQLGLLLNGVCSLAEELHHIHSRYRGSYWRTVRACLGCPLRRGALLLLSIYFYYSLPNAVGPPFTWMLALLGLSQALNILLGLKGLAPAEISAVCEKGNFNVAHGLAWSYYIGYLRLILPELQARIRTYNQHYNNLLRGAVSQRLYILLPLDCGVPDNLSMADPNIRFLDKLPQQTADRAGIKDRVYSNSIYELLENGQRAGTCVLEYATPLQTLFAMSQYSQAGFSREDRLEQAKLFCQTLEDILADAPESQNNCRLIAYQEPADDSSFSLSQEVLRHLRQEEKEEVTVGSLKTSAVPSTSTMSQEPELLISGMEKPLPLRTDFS
Description: IRF-Lucia Reporter STING Inhibition Assay. […] Cells were incubated at 37° C. in a 5% CO2 atmosphere with varying concentrations of test compound for 1.5 hours, followed by treatment with 1 μM 2,3-cGAMP (InvivoGen, tlrl-nacga23-02) and incubated for 20 hours. A 20 μL aliquot of cell suspension was added to 50 μL. QUANTI-Luc™ reagent (InvivoGen, rep-qlc4lg2), and the resulting luminescence is measured by a GloMax Explorer (Promega) with a 0.1 second read time.

661 W cells [1] = assay: 4-HNE-induced ROS production in 661 W cells; details: 12.5 μM, 2 hours, 4-HNE 10 μM, 24 hours, n=6
661 W cells [2] = assay: Viability of 661 W cells after H2O2 (trypan blue exclusion)
661 W cells [3] = details: 12.5 μM, 2 hours, H2O2 500 μM, 24 hours, n=6
661 W cells [4] = assay: Viability of 661 W cells after 4-HNE (trypan blue exclusion)
HMC3 cells = details: 12.5 μM, 200 μM TBHP
PPARα = details: major metabolite of fenofibrate; cited from earlier work

| Compound | % STING INHIBITION, % at 12.5 μm (STING) | % STING INHIBITION, % at 25 μm (STING) | % STING INHIBITION, % at 50 μm (STING) | also measured |
| --- | --- | --- | --- | --- |
| O=C(O)c1cccc(NCc2cn(-c3ccc(F)cc3)nn2)c1 [Example 28, 3-(((1-(4-fluorophenyl)-1H-1,2,3-triazol-4-yl)methyl)amino)benzoic Acid] | – | – | – | activation at 0.5 µM (human PPARα): 13.1%; activation at 5 µM (human PPARα): 21.5%; activation at 50 µM (human PPARα): 58.6% |
| O=C(O)c1cc(F)cc(NCc2cn(-c3ccc(C(F)(F)F)cc3)nn2)c1 [Example 29, 3-fluoro-5-(((1-(4-(trifluoromethyl)phenyl)-1H-1,2,3-triazol-4-yl)methyl)amino)benzoic Acid] | – | – | – | activation at 0.5 µM (human PPARα): 27%; activation at 5 µM (human PPARα): 139%; activation at 50 µM (human PPARα): 91% |
| O=C(O)c1cc(F)cc(NCc2cn(-c3ccc(F)cc3)nn2)c1 [Example 30, 3-fluoro-5-(((1-(4-fluorophenyl)-1H-1,2,3-triazol-4-yl)methyl)amino)benzoic Acid] | – | – | – | activation at 0.5 µM (human PPARα): 9.6%; activation at 5 µM (human PPARα): 19.1%; activation at 50 µM (human PPARα): 48.8% |
| O=C(O)c1cc(NCc2ccc(-c3ccc(C(F)(F)F)cc3)cc2)ccc1O [Example 32, 2-hydroxy-5-(((4′-(trifluoromethyl)-[1,1′-biphenyl]-4-yl)methyl)amino)benzoic acid] | 28% | 43% | 64% | – |
| COc1ccc(-c2ccc(CNc3ccc(O)c(C(=O)O)c3)cc2)cc1 [Example 33] | 0% | 0% | 0% | – |
| CS(=O)(=O)c1ccc(-c2ccc(CNc3ccc(O)c(C(=O)O)c3)cc2)cc1 [Example 34, 2-Hydroxy-5-(((4′-(methylsulfonyl)-[1,1′-biphenyl]-4-yl)methyl)amino)benzoic acid] | 0% | 0% | 0% | – |
| O=C(O)c1cc(NCc2ccc(-c3ccc(O)cc3)cc2)ccc1O [Example 35, 2-Hydroxy-5-(((4′-hydroxy-[1,1′-biphenyl]-4-yl)methyl)amino)benzoic acid] | 0% | 0% | 0% | – |
| CC(C)(C)c1ccc(-c2ccc(CNc3ccc(O)c(C(=O)O)c3)cc2)cc1 [Example 36, 5-(((4′-(tert-Butyl)-[1,1′-biphenyl]-4-yl)methyl)amino)-2-hydroxybenzoic acid] | 0% | 0% | >95% | – |
| O=C(O)c1cc(NCc2ccc(-c3ccccc3)cc2)ccc1O [Example 37, 5-(([1,1′-Biphenyl]-4-ylmethyl)amino)-2-hydroxybenzoic acid] | 0% | 28% | 66% | – |
| O=C(O)c1cc(NCc2ccc(-c3ccc(F)c([N+](=O)[O-])c3)cc2)ccc1O [Example 38, 5-(((4′-Fluoro-3′-nitro-[1,1′-biphenyl]-4-yl)methyl)amino)-2-hydroxybenzoic acid] | 0% | 39% | 90% | – |
| COc1cc(F)ccc1-c1ccc(CNc2ccc(O)c(C(=O)O)c2)cc1 [Example 39, 5-(((4′-Fluoro-2′-methoxy-[1,1′-biphenyl]-4-yl)methyl)amino)-2-hydroxybenzoic acid] | 0% | 0% | 0% | – |
| Cc1cc(F)ccc1-c1ccc(CNc2ccc(O)c(C(=O)O)c2)cc1 [Example 41, 5-(((4′-Fluoro-2′-methyl-[1,1′-biphenyl]-4-yl)methyl)amino)-2-hydroxybenzoic acid] | 25% | 47% | 80% | – |
| COc1ccc(NCc2ccc(-c3ccc(F)cc3)cc2)cc1C#N [Example 43, 5-(((4′-Fluoro-[1,1′-biphenyl]-4-yl)methyl)amino)-2-methoxybenzonitrile] | 0% | 0% | 0% | – |
| Cc1cc(-c2ccc(CNc3ccc(O)c(C(=O)O)c3)cc2)ccc1F [Example 44, 5-(((4′-Fluoro-3′-methyl-[1,1′-biphenyl]-4-yl)methyl)amino)-2-hydroxybenzoic acid] | 0% | 12% | 81% | – |
| O=C(O)c1cc(O)cc(NCc2ccc(-c3ccc(F)cc3)cc2)c1 [Example 45, 3-(((4′-Fluoro-[1,1′-biphenyl]-4-yl)methyl)amino)-5-hydroxybenzoic acid] | 9% | 50% | 80% | – |
| COc1ccc(NCc2ccc(-c3ccc(F)cc3)cc2)cc1C(=O)O [Example 46, 5-(((4′-fluoro-[1,1′-biphenyl]-4-yl)methyl)amino)-2-methoxybenzoic acid] | 9% | 31% | 53% | – |
| N#Cc1cc(NCc2ccc(-c3ccc(F)cc3)cc2)ccc1O [Example 47, 5-(((4′-Fluoro-[1,1′-biphenyl]-4-yl)methyl)amino)-2-hydroxybenzonitrile] | 40% | 80% | 99% | – |
| Oc1ccc(NCc2ccc(-c3ccc(F)cc3)cc2)cc1-c1nnn[nH]1 [Example 48] | 0% | 32% | 77% | – |
| CC(C)(Sc1ccc(CCN(CCCCC2CCCCC2)C(=O)NC2CCCCC2)cc1)C(=O)O [GW7647, reference compound] | – | – | – | PPAR-alpha agonism of the positive control (human PPARα; 90 nM): full agonism; cytotoxicity of the positive control (human PPARα; 90 nM): without signs of cytotoxicity |
| O=C(Nc1ccc(O)c(NS(=O)(=O)c2ccc(F)cc2)c1)c1ccc(-c2ccccc2)cc1 [SN-011] | – | – | – | 4-HNE-induced production of ROS (661 W cells [1]): the difference between SN011 and Example 17 is less pronounced; cell viability after H2O2 (661 W cells [2]; 1 μM and 10 μM, H2O2 500 μM, 24 hours, n=3): fails to show a dose-response improvement between 1 μM and 10 μM; also recorded: Improvement in cell viability; cell viability after H2O2 (661 W cells [2]; 1 μM, SN-011 vs Example 31): no significant difference; H2O2-induced ROS production (661 W cells [3]): the difference between SN011 and Example 17 is less pronounced; cell viability after 4-HNE (661 W cells [4]; 1 μM and 10 μM, 4-HNE 10 μM, 24 hr, n=3): fails to show a dose-response improvement between 1 μM and 10 μM; also recorded: Improvement in cell viability; cell viability after 4-HNE (661 W cells [4]; 1 μM, SN-011 vs Example 31): no significant difference; TBHP-induced production of ROS (oxidative stress) (HMC3 cells): greater reduction in oxidative stress than PPARα agonism (Example 31 (BH400) |
| CC(C)(Oc1ccc(C(=O)c2ccc(Cl)cc2)cc1)C(=O)O [fenofibric acid] | – | – | – | agonism of PPARα by major metabolite (PPARα): agonism of PPARα |
